The target of this assay is T1, MMP-2 (Homo sapiens, UniProt P08253).
T1 construct: made in house; host or cells: MMP-2-transfected p2AHT2 cells
T1 sequence (P08253 110-660): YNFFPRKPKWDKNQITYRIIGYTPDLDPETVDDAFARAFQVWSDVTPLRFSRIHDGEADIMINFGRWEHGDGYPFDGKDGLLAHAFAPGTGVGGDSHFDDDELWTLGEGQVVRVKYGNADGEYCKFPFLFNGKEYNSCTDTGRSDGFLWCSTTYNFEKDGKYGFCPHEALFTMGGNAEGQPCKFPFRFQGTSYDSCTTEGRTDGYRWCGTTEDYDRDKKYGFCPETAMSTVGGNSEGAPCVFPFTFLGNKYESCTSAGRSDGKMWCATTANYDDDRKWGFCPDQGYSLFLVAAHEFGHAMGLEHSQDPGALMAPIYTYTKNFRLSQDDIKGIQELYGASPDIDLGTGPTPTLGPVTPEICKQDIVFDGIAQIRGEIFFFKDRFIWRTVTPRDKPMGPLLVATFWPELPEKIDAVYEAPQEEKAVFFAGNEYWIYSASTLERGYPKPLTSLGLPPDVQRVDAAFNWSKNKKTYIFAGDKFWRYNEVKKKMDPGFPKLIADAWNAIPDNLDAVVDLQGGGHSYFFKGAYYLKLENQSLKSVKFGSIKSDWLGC
As to the kind of experiment: In vitro MMP inhibition, Ki determination (fluorogenic substrate II). The format is biochemical. The following applies: value outside parentheses; read-out: MMP-2 Ki.

`CCCCc1ccc(-c2cnc(N3CCN(S(=O)(=O)C4(C(=O)NO)CCOCC4)CC3)s2)cc1` [Example 379]: the Ki amounted to 0.14 nM. The same measure for `CCCCCc1ccc(-c2cnc(N3CCN(S(=O)(=O)C4(C(=O)NO)CCOCC4)CC3)s2)cc1` [Example 380]: 1.39 nM; for `CCc1ccc(-c2cnc(N3CCN(S(=O)(=O)C4(C(=O)NO)CCOCC4)CC3)s2)cc1` [Example 381]: 0.209 nM. For `O=C(NO)C1(S(=O)(=O)N2CCN(c3ncc(-c4cccnc4)s3)CC2)CCOCC1` [Example 382] the value was 0.68 nM; for `NC(=O)c1ccccc1-c1cnc(N2CCN(S(=O)(=O)C3(C(=O)NO)CCOCC3)CC2)s1` [Example 383], 1230 nM. `N#Cc1cccc(-c2cnc(N3CCN(S(=O)(=O)C4(C(=O)NO)CCOCC4)CC3)s2)c1` [Example 384]: the inhibitory constant (Ki) is 0.185 nM. In the case of `O=C(NO)C1(S(=O)(=O)N2CCC(c3ccc(OCC(F)(F)C(F)F)cc3)CC2)CCN(CCN2CCOCC2)CC1` [Example 385], the Ki came to 0.573 nM. The same measure for `O=C(NO)C1(S(=O)(=O)N2CCN(c3ccc(CCCC(F)(F)F)cc3F)CC2)CCOCC1` [Example 386]: 4.88 nM. For `O=C(NO)C1(S(=O)(=O)N2CCN(c3ncc(-c4ccccn4)s3)CC2)CCOCC1` [Example 387] the value was 6.71 nM; for `CCCCc1ccc(C2CCN(S(=O)(=O)C3(C(=O)NO)CCNCC3)CC2)nc1` [Example 388], 11.2 nM. Turning to `O=C(NO)C1(S(=O)(=O)N2CCN(c3ccc(CCCC(F)(F)F)c(F)c3)CC2)CCOCC1` [Example 389], the inhibitory constant (Ki) turned out to be 0.38 nM. The same measure for `O=C(NO)C1(S(=O)(=O)N2CCC(c3ccc(-c4cccnc4)cn3)CC2)CCOCC1` [Example 390]: 12.3 nM. For the compound `O=C(NO)C1(S(=O)(=O)N2CCC(c3ccc(-c4ccccc4)cn3)CC2)CCOCC1` [Example 392], the inhibitory constant (Ki) came out at 4.02 nM. For `O=C(NO)C1(S(=O)(=O)N2CCC(c3ccc(-c4cccs4)cn3)CC2)CCOCC1` [Example 394] the value was 1.8 nM; for `O=C(NO)C1(S(=O)(=O)N2CCC(c3ccc(-c4ccc(C(F)(F)F)cc4)cn3)CC2)CCOCC1` [Example 395], 7.17 nM. The same measure for `CCCCc1ccc(C2CCN(S(=O)(=O)C3(C(=O)NO)CCN(CC)CC3)CC2)nc1` [Example 396]: 2.32 nM.

Broadly, the Ki is a measure of affinity in units of concentration, obtained from inhibition or displacement.
